# Source: US20090093069A1, “Topiramate Immunoassays” (ARK Diagnostics, Inc., priority 2007, published 2009)
# System: rabbit polyclonal antibody #11341
# Assay: Coadministered drug interference study in the homogeneous enzyme immunoassay (HITACHI 917)
# Format: binding
# Details: 5.0 μg/mL drug added to human serum containing 20.0 μg/mL topiramate
# Method: The antibody was added into the antibody diluent to prepare the antibody reagent. The antibody reagent consists of antibody as prepared above, buffer, stabilizers, preservatives, and the substrates for the enzyme conjugate NAD and glucose 6 phosphate. […] The enzyme conjugate reagent consists of the conjugate, buffer, stabilizers and preservatives.
# (§1) The ARK Assay for topiramate is conducted using a liquid, ready-to-use, two-reagent kit. […] Topiramate containing sample is incubated with antibody reagent followed by the addition of the enzyme conjugate reagent. The enzyme conjugate activity decreases upon binding to the antibody. The enzyme conjugate, which is not bound to the antibody, catalyzes the oxidation of glucose 6-phosphate (G6P). The oxidation of G6P is coupled with the reduction of NAD^+ to NADH, which can be measured at 340 nm. The change in the absorbance at 340 nm can be measured spectrophotometrically. The topiramate concentration in a specimen can be measured in terms of G6PDH activity. The increase in the rate at 340 nm is due to the formation of NADH and is proportional to the enzyme conjugate activity. […] The assay rate increases with increasing the concentration of drug in the sample.
# A high concentration of each coadministered drug was spiked into normal human serum with containing topiramate 20 μg/mL and assayed. Each sample was assayed in duplicate. […] The percentage concentration above 20.0 μg/mL of topiramate was calculated for each coadministered drug tested.
row,SMILES,% Interference [(20.0 μg/mL Topiramate) − (Result)] ÷ (drug conc.) × 100 [%]
1,NC(N)=Nc1nc(CSCCC(N)=NS(N)(=O)=O)cs1 [Famotidine],−0.2

# Same assay, conditions: 10.0 μg/mL drug added to human serum containing 20.0 μg/mL topiramate
row,SMILES,% Interference [(20.0 μg/mL Topiramate) − (Result)] ÷ (drug conc.) × 100 [%]
1,NS(=O)(=O)c1cc(C(=O)O)c(NCc2ccco2)cc1Cl [Furosemide],0.10

# Same assay, conditions: 50.0 μg/mL drug added to human serum containing 20.0 μg/mL topiramate
row,SMILES,% Interference [(20.0 μg/mL Topiramate) − (Result)] ÷ (drug conc.) × 100 [%]
1,CC(=O)Nc1nnc(S(N)(=O)=O)s1 [Acetazolamide],0.56
2,CC(=O)Nc1ccc(O)cc1 [Acetominophen],−0.38
3,CC(C)NCC(O)COc1ccc(CC(N)=O)cc1 (stereo not drawn) [Atenolol],−0.40
4,O=C1CN=C(c2ccccc2Cl)c2cc([N+](=O)[O-])ccc2N1 [Clonazepam],0.70
5,CN1C(=O)CN=C(c2ccccc2)c2cc(Cl)ccc21 [Diazepam],0.64
6,CC(C)Cc1ccc(C(C)C(=O)O)cc1 (stereo not drawn) [Ibuprofen],2.30
7,O=C1NC(=O)C(c2ccccc2)(c2ccccc2)N1 [Phenytoin],0.32

# Same assay, conditions: 100.0 μg/mL drug added to human serum containing 20.0 μg/mL topiramate
row,SMILES,% Interference [(20.0 μg/mL Topiramate) − (Result)] ÷ (drug conc.) × 100 [%]
1,CC(=O)Oc1ccccc1C(=O)O [Acetylsalicyclic Acid],0.25
2,Cn1c(=O)c2c(ncn2C)n(C)c1=O [Caffeine],0.35
3,NC(=O)N1c2ccccc2C=Cc2ccccc21 [Carbamazepine],−0.43
4,NS(=O)(=O)c1cc(C2(O)NC(=O)c3ccccc32)ccc1Cl (stereo not drawn) [Chlorthalidone],0.16
5,NCC1(CC(=O)O)CCCCC1 [Gabapentin],−0.49
6,Nc1nnc(-c2cccc(Cl)c2Cl)c(N)n1 [Lamotrogine],−1.02
7,COCCc1ccc(OCC(O)CNC(C)C)cc1 (stereo not drawn) [Metoprolol],0.35
8,CCC1(c2ccccc2)C(=O)NC(=O)NC1=O [Phenobarbitol],1.08
9,CCC1(c2ccccc2)C(=O)NCNC1=O [Primidone],−1.83
10,COc1ccc(CCN(C)CCCC(C#N)(c2ccc(OC)c(OC)c2)C(C)C)cc1OC (stereo not drawn) [Verapamil],1.07

# Same assay, conditions: 200.0 μg/mL drug added to human serum containing 20.0 μg/mL topiramate
row,SMILES,% Interference [(20.0 μg/mL Topiramate) − (Result)] ÷ (drug conc.) × 100 [%]
1,CC[C@@H](C(N)=O)N1CCCC1=O [Levetiracetam],−0.45
2,CCCC(CCC)C(=O)O [Valproic Acid],0.50
3,NS(=O)(=O)Cc1noc2ccccc12 [Zonisamide],0.08

# Same assay, conditions: 500.0 μg/mL drug added to human serum containing 20.0 μg/mL topiramate
row,SMILES,% Interference [(20.0 μg/mL Topiramate) − (Result)] ÷ (drug conc.) × 100 [%]
1,CCC1(C)CC(=O)NC1=O (stereo not drawn) [Ethosuxamide],−0.09
2,NC(=O)OCC(COC(N)=O)c1ccccc1 [Felbamate],0.20

# Same assay, conditions: 750.0 μg/mL drug added to human serum containing 20.0 μg/mL topiramate
row,SMILES,% Interference [(20.0 μg/mL Topiramate) − (Result)] ÷ (drug conc.) × 100 [%]
1,O=C(O)c1ccccc1O [Salicylic Acid],−5.73
2,CCCCNC(=O)NS(=O)(=O)c1ccc(C)cc1 [Tolbutamide],−0.08

# Same assay, conditions: 2000.0 μg/mL drug added to human serum containing 20.0 μg/mL topiramate
row,SMILES,% Interference [(20.0 μg/mL Topiramate) − (Result)] ÷ (drug conc.) × 100 [%]
1,Nc1ccc(S(N)(=O)=O)cc1 [Sulfanilamide],−0.16

# System: antibody from rabbit #11341
# Assay: Crossreactivity to topiramate metabolites in the homogeneous enzyme immunoassay (HITACHI 917)
# Format: binding
# Details: metabolite 50.0 μg/mL, in the presence of 20 μg/mL topiramate
# Method: % Crossreactivity=100×(“apparent concentration of measurand”/“concentration of crossreactant”)
# as §1
# The apparent topiramate concentration for the metabolite is the difference in concentration with metabolite minus the concentration without metabolite.
row,SMILES,% Cross Reactivity [%]
1,"CC1(C)O[C@H]2[C@@H]3O[C@](C)(CO)O[C@@H]3CO[C@@]2(COS(N)(=O)=O)O1 [9-OH-Topiramate, 9-hydroxytopiramate]",3.18
2,"CC1(C)O[C@H]2[C@@H]3O[C@@](C)(CO)O[C@@H]3CO[C@@]2(COS(N)(=O)=O)O1 [10-OH-Topiramate, 10-hydroxytopiramate]",3.20

# System: antibodies raised with immunogens (10-KLH, 12-KLH, 12-L-KLH, 19-KLH, 22-KLH and 25-KLH)
# Assay: Enzyme-based assay format, reactivity of antibodies raised with the immunogens
# Format: binding
# Details: not given
# Text: All the prepared haptens have utility for KLH and G6PDH bio-conjugation. immunogens (10-KLH, 12-KLH, 12-L-KLH, 19-KLH, 22-KLH and 25-KLH) were used to raise antibodies.
row,SMILES,reactivity of the antibodies
1,CC1(C)O[C@@H]2[C@@H](CO[C@@]3(CO)OC(C)(C)O[C@@H]23)O1 [diacetonefructose],good reactivity
